Reference: US10125148B2, “Pyrazolopyrimidine macrocycles as inhibitors of human immunodeficiency virus replication” (priority 2014, dated 2018)
pEC50: −log10 of the molar value.

system: NL-RLuc virus; assay: Inhibition of HIV replication (NL-RLuc luciferase reporter virus in MT-2 cells); assay type: cell-based; settings: Human immunodeficiency virus 1, MT2, 120 h

Compound	pEC50
Cc1nc2cc3nn2c(c1[C@H](OC(C)(C)C)C(=O)O)N1CCC(C)(CC1)OC/C=C/[C@H](C)Oc1cc(F)ccc1-c1cccc-3c1 [Example 9, (2S)-2-(tert-Butoxy)-2-[(23E)-18-fluoro-4,22,27-trimethyl-21,26-dioxa-1,5,7,8-tetraazahexacyclo[25.2.2.1^6,9.1^10,14.0^2,7.0^15,20]tritriaconta-2,4,6(33),8,10(32),11,13,15(20),16,18,23-undecaen-3-yl]acetic acid]	8.22
Cc1cc(F)c2c(c1)O[C@@H](C)CCCCOC1(C)CCN(CC1)c1c([C@H](OC(C)(C)C)C(=O)O)c(C)nc3cc(nn13)-c1cccc-2c1 [Example 5, (2S)-2-(tert-Butoxy)-2-[(22S)-16-fluoro-4,18,22,28-tetramethyl-21,27-dioxa-1,5,7,8-tetraazahexacyclo[26.2.2.1^6,9.1^10,14.0^2,7.0^15,20]tetratriaconta-2,4,6(34),8,10(33),11,13,15(20),16,18-decaen-3-yl]acetic acid]	7.66
Cc1nc2cc3nn2c(c1[C@H](OC(C)(C)C)C(=O)O)N1CCC(C)(CC1)OCCCC[C@H](C)Oc1cc(F)c(F)cc1-c1cccc-3c1 [Example 2, (2S)-2-(tert-Butoxy)-2-[(22S)-17,18-difluoro-4,22,28-trimethyl-21,27-dioxa-1,5,7,8-tetraazahexacyclo[26.2.2.1^6,9.1^10,14.0^2,7.0^15,20]tetratriaconta-2,4,6(34),8,10(33),11,13,15(20),16,18-decaen-3-yl]acetic acid]	7.59
Cc1nc2cc3nn2c(c1[C@H](OC(C)(C)C)C(=O)O)N1CCC(C)(CC1)OCCCC[C@H](C)Oc1cc(F)ccc1-c1cc(F)cc-3c1 [Example 27, (2S)-2-(tert-Butoxy)-2-[(22S)-12,18-difluoro-4,22,28-trimethyl-21,27-dioxa-1,5,7,8-tetraazahexacyclo[26.2.2.1^6,9.1^10,14.0^2,7.0^15,20]tetratriaconta-2,4,6(34),8,10(33),11,13,15(20),16,18-decaen-3-yl]acetic acid]	7.35
Cc1ccc2c(c1)-c1cccc(c1)-c1cc3nc(C)c([C@H](OC(C)(C)C)C(=O)O)c(n3n1)N1CCC(C)(CC1)O/C=C\CC[C@H](C)O2 [Example 19, (2S)-2-(tert-Butoxy)-2-[(22S,25Z)-4,17,22,28-tetramethyl-21,27-dioxa-1,5,7,8-tetraazahexacyclo[26.2.2.1^6,9.1^10,14.0^2,7.0^15,20]tetratriaconta-2,4,6(34),8,10(33),11,13,15(20),16,18,25-undecaen-3-yl]acetic acid]	7.48
Cc1nc2cc3nn2c(c1[C@H](OC(C)(C)C)C(=O)O)N1CCC(C)(CC1)OCCCC[C@H](C)Oc1ccc(C(F)(F)F)cc1-c1cccc-3c1 [Example 1, (2S)-2-(tert-Butoxy)-2-[(22S)-4,22,28-trimethyl-17-(trifluoromethyl)-21,27-dioxa-1,5,7,8-tetraazahexacyclo[26.2.2.1^6,9.1^10,14.0^2,7.0^15,20]tetratriaconta-2,4,6(34),8,10(33),11,13,15(20),16,18-decaen-3-yl]acetic acid]	7.41
Cc1ccc2c(c1F)-c1cccc(c1)-c1cc3nc(C)c([C@H](OC(C)(C)C)C(=O)O)c(n3n1)N1CCC(C)(CC1)OC/C=C/[C@H](C)O2 [Example 11, (2S)-2-(tert-Butoxy)-2-[(22S,23E)-16-fluoro-4,17,22,27-tetramethyl-21,26-dioxa-1,5,7,8-tetraazahexacyclo[25.2.2.1^6,9.1^10,14.0^2,7.0^15,20]tritriaconta-2,4,6(33),8,10(32),11,13,15(20),16,18,23-undecaen-3-yl]acetic acid]	8.52
Cc1nc2cc3nn2c(c1[C@H](OC(C)(C)C)C(=O)O)N1CCC(C)(CC1)OC/C=C/[C@H](C)Oc1ccc(F)cc1-c1cccc-3c1 [Example 13, (2S)-2-(tert-Butoxy)-2-[(22S,23E)-17-fluoro-4,22,27-trimethyl-21,26-dioxa-1,5,7,8-tetraazahexacyclo[25.2.2.1^6,9.1^10,14.0^2,7.0^15,20]tritriaconta-2,4,6(33),8,10(32),11,13,15(20),16,18,23-undecaen-3-yl]acetic acid]	8.40
